Reference: publication PMC12362618, “Development of the First Small-Molecule Inhibitor Targeting Oncostatin M for Treatment of Breast Cancer” (Journal of Medicinal Chemistry, 2025)
Several values for one entry are separate records, joined by “and”; a condition that tells them apart may be missing. Equal entries are not always repeated. Entries after “also recorded” stand apart in the source; their conditions may differ.

Columns and labels:
OSM = biological target: T1, OSM (Homo sapiens, UniProt P13725); assay: Fluorescence quenching assay of SMI binding to OSM; settings: average of three independent replicates, errors at 95% confidence level, read-out: KD (OSM-SMI dissociation constant)
T1 sequence (P13725 26-252): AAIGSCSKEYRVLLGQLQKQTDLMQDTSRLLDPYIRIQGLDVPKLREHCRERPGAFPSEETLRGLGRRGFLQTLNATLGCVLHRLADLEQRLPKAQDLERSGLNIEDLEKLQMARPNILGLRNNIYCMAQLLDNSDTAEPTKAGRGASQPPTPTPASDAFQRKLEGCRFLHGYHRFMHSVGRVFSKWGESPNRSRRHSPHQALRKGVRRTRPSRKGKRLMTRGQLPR
Protocol: To perform fluorescence quenching assays, 2 mL of 1 μM OSM solution in polymethylmethacrylate cuvettes was prepared by dilution of a concentrated stock solution of recombinant OSM with buffer solution (100 mM sodium chloride, 50 mM sodium phosphate, 50 mM freshly added DTT, pH = 6.6). Cuvettes were titrated with 5 μL increments of a 1 mM small molecule stock solution in DMSO, with a cuvette titrated with an equivalent volume of DMSO as a control. […] In cases where little to no significant quenching was observed, the titration was supplemented with 2.5 μL increments of a 10 mM small molecule stock solution to increase the concentration delivered. The fluorescence intensity measurements were obtained on a Cary Eclipse spectrofluorometer equipped with a Xenon arc lamp. Fluorescence intensities were measured by exciting at 280 nm (4 nm slit width) and recording the emission from 345 to 355 nm with a photomultiplier tube voltage of 700 V, unless otherwise noted. Each titration point was normalized to OSM’s native fluorescence intensity, corrected by adding the decrease in fluorescence intensity caused by dilution with DMSO, and the average value of the three replicates for each point was plotted against concentration of small molecule delivered and fit to a modified Stern–Volmer function as described by Charlier and Plapp. Binding affinity (K D) values were obtained […] from the fitting routine. All curve-fitting analysis was performed in GraphPad Prism 8.0.

[1] = system: OSM-induced pSTAT3 in T47D human breast cancer cells; assay: pSTAT3 ELISA in T47D cells treated with OSM ± SMI; type: cell-based; settings: T47D; SMI 10 μM + OSM 10 ng/mL, 30 min; ELISA; relative to +OSM, no-treatment blank subtracted
Protocol: To test the effect of SMIs in vitro, each SMI was incubated with OSM for a period of 1 h at 37 °C, and T47D and MDA-MB-231 human breast cancer cell lines were subsequently treated with OSM (10 ng/mL) and/or SMI-10 (10 μM) analogs for 30 min and measured for pSTAT3 levels via ELISA. The results of these assays are presented graphically in Figure and, for T47D cells, in Table as a percentage of reduction from +OSM alone. For phospho-STAT3 (pSTAT3) ELISAs, T47D MDA-MB-231, and MCF-7 cells were seeded in 12- or 24-well plates at 70–75% confluency and allowed to adhere overnight, after which cells were serum-starved with serum-free RPMI-1640 for 4 h. SMIs (10 μM in DMSO or serially diluted to specified concentrations from a 100 mM stock in DMSO) and human recombinant OSM (10 ng/mL; PeproTech; #300–10T-10UG) were incubated in serum-free RPMI-1640 medium for 1 h. After incubation, the SMI-10 analogs or SMI-10B13 and OSM were added to the serum-starved cells for 30 min. Immediately afterward, the cells were lysed using 1x PathScan Sandwich ELISA Lysis Buffer (Cell Signaling Technology; #7018S), collected, and stored at −20 °C. Lysates were analyzed for pSTAT3 levels using either the PathScan Phospho-STAT3 (Tyr705) Sandwich ELISA Antibody Pair kit (Cell Signaling Technology; #7146) or Human/Mouse Phospho-STAT3 (Y705) DuoSet IC ELISA (R&D Systems; DYC4607B), according to manufacture’s protocol. pSTAT3 expression was measured with absorbance at 450 nm and quantified by comparison relative to OSM-induced pSTAT3 levels. To calculate an IC50 for SMI-10B13, a standard curve was generated as described in the DuoSet IC ELISA datasheet to determine the concentration of pSTAT3.

[2] = system: OSM-mediated signaling (pSTAT3, pAKT, pJNK, pERK) in T47D cells; assay: Immunoblot of OSM-mediated signaling in T47D cells; type: cell-based, human; settings: SMI 10 μM, OSM 10 ng/mL, 30 min
Protocol: For immunoblot analysis, T47D breast cancer cells were treated and collected in the same manner as described above for the ELISA preparation. After lysate collection, samples were run on a 10% SDS-PAGE gel and transferred to a nitrocellulose membrane via semidry transfer. Blots were rinsed with DI H2O and allowed to completely dry at room temperature before blocking with LiCor Intercept PBS Blocking Buffer (LiCor, Lincoln, NE; Cat# 927-90001) for 1 h. After blocking, primary antibodies (1:1000) suspended in blocking buffer supplemented with 0.1% Tween were added, shaken at room temperature for 1 h, and stored at 4 °C overnight. Membranes were then washed 6 times for 5 minutes each with 1X PBS supplemented with 0.5% Tween while shaking at room temperature, and secondary antibodies (1:15,000) were applied and incubated for 1 h. Afterward, membranes were washed as previously described above and imaged at 700 nm using the LiCor Odyssey CLx Imaging System. Quantification of immunoblots was performed using the LiCor Image Studio software, normalizing to β-Actin, and calculating relative fold change compared to nontreated samples. Antibodies used included phospho-STAT3 (Y705) (Cell Signaling Technology, Danvers, MA; cat. no. 9145), phospho-AKT (S473) (Cell Signaling Technology, Danvers, MA; cat. no. 4060), phospho-JNK ([…]/[…]) (Cell Signaling Technology, Danvers, MA; cat. no. 4668), phospho-ERK (T202/Y204) (Cell Signaling Technology, Danvers, MA; cat. no. 9101), β-Actin (Cell Signaling Technology; cat. no. 3700), and donkey antirabbit IRDye 800CW (LiCor, Lincoln, NE; Cat# 925-32213).

Row | SMILES | Kd (OSM) | Relative pSTAT3 Levels (Table 2, SMI-10B analogs) [1] | Inhibition of OSM-mediated signaling cascades by immunoblot (words) [2] | Inhibition of OSM-mediated signaling cascades by immunoblot (words) ([2]; listed as 10B8) | Relative pSTAT3 Levels (Table 1, SMI-10A-10J) [1]
1 | O=C(O)/C=C/c1cc(-c2ccc3c(c2)OCO3)c(-c2ccc3c(c2)OCO3)s1 [SMI-10B4, (E)-3-(4,5-Bis(benzo[d][1,3]dioxol-5-yl)thiophen-2-yl)acrylic Acid] | 21.2 ± 1.8 µM | 17.98% | – | – | –
2 | Cn1c(/C=C/C(=O)O)cc(-c2ccc3c(c2)OCO3)c1-c1ccc2c(c1)OCO2 [SMI-10B6, (E)-3-(4,5-Bis(benzo[d][1,3]dioxol-5-yl)-1-methyl-1H-pyrrol-2-yl)acrylic Acid] | 10 ± 1 µM | 20.43% | – | – | –
3 | O=C(O)CCc1cc(-c2ccc(Cl)c(Cl)c2)c(-c2ccc3c(c2)OCO3)o1 [SMI-10B18, 3-(5-(Benzo[d][1,3]dioxol-5-yl)-4-(3,4-dichlorophenyl)furan-2-yl)propanoic Acid] | 13.5 ± 2.5 µM | 35.00% | – | – | –
4 | O=C(O)/C=C/c1cc(-c2ccc3c(c2)OCO3)co1 [SMI-10B12, (E)-3-(4-(Benzo[d][1,3]dioxol-5-yl)furan-2-yl)acrylic Acid] | 66.7 ± 5.8 µM | 34.26% | most effective; also recorded: better at inhibiting pSTAT3, pAKT, pJNK, and pERK signaling | – | –
5 | O=C(O)/C=C/c1cc(-c2ccccc2)c(-c2ccc3c(c2)OCO3)o1 [SMI-10B8, (E)-3-(5-(Benzo[d][1,3]dioxol-5-yl)-4-phenylfuran-2-yl)acrylic Acid] | 7.2 ± 0.8 µM | 81.66% | most effective | better at inhibiting pSTAT3, pAKT, pJNK, and pERK signaling | –
6 | COc1ccc(-c2cc(/C=C/C(=O)O)oc2-c2ccc(OC)c(O)c2)cc1O [SMI-10B2, (E)-3-(4,5-Bis(3-hydroxy-4-methoxyphenyl)furan-2-yl)acrylic Acid] | 17.5 ± 1.2 µM | 56.66% | – | – | –
7 | O=C(O)c1cc(-c2ccc3c(c2)OCO3)c(-c2ccc3c(c2)OCO3)o1 [SMI-10I, 4,5-Bis(benzo[d][1,3]dioxol-5-yl)furan-2-carboxylic Acid] | 46.2 ± 7.2 µM | – | – | – | 45.9%
8 | O=C(O)/C=C/c1ccc(-c2ccc3c(c2)OCO3)o1 [SMI-10B11, (E)-3-(5-(Benzo[d][1,3]dioxol-5-yl)furan-2-yl)acrylic Acid] | 20.1 ± 1.5 µM | 42.43% | – | – | –
9 | O=C(NCc1ccccc1)c1cc(-c2ccc3c(c2)OCO3)c(-c2ccc3c(c2)OCO3)o1 [SMI-10J, 4,5-Bis(benzo[d][1,3]dioxol-5-yl)-N-benzylfuran-2-carboxamide] | 30.5 ± 2.1 µM | – | significant reductions, near nontreated levels | – | 8.6%
10 | O=C(O)/C=C/c1cc(-c2ccc3c(c2)OCCO3)c(-c2ccc3c(c2)OCCO3)o1 [SMI-10B7, (E)-3-(4,5-Bis(2,3-dihydrobenzo[b][1,4]dioxin-6-yl)furan-2-yl)acrylic Acid] | 6.6 µM and 6.64 µM | 73.96% | – | – | –
11 | COc1ccc(-c2cc(/C=C/C(=O)O)oc2-c2ccc(OC)c(OC)c2)cc1OC [SMI-10B1, (E)-3-(4,5-Bis(3,4-dimethoxyphenyl)furan-2-yl)acrylic Acid] | 18.4 ± 1.3 µM | 62.35% | – | – | –
12 | OCc1cc(-c2ccc3c(c2)OCO3)c(-c2ccc3c(c2)OCO3)o1 [SMI-10H, (4,5-Bis(benzo[d][1,3]dioxol-5-yl)furan-2-yl)methanol] | > 200 µM | – | – | – | 61.1%
13 | O=C(O)CCc1cc(-c2ccc3c(c2)OCO3)c(-c2ccc3c(c2)OCO3)o1 [SMI-10B14, 3-(4,5-Bis(benzo[d][1,3]dioxol-5-yl)furan-2-yl)propanoic Acid] | 9.1 ± 1.5 µM | 79.65% | most effective; also recorded: better at inhibiting pSTAT3, pAKT, pJNK, and pERK signaling | – | –
14 | COc1cc(-c2cc(/C=C/C(=O)O)oc2-c2ccc(O)c(OC)c2)ccc1O [SMI-10B3, (E)-3-(4,5-Bis(4-hydroxy-3-methoxyphenyl)furan-2-yl)acrylic Acid] | 18.5 ± 1.7 µM | 67.12% | – | – | –
15 | COC(=O)c1cc(-c2ccc3c(c2)OCO3)c(-c2ccc3c(c2)OCO3)o1 [SMI-10A, Methyl 4,5-Bis(benzo[d][1,3]dioxol-5-yl)furan-2-carboxylate] | 29.6 ± 5.6 µM | – | – | – | 84.7%
16 | O=C(O)CCc1cc(-c2ccc(F)c(F)c2)c(-c2ccc3c(c2)OCO3)o1 [SMI-10B15, 3-(5-(Benzo[d][1,3]dioxol-5-yl)-4-(3,4-difluorophenyl)furan-2-yl)propanoic Acid] | 8.9 ± 2 µM | 75.05% | – | – | –
17 | O=C(O)/C=C/c1cc(-c2ccccc2)c(-c2ccccc2)o1 [SMI-10B10, (E)-3-(4,5-Diphenylfuran-2-yl)acrylic Acid] | 20.7 ± 1.9 µM | 46.10% | – | – | –
18 | O=C(O)/C=C/c1cc(-c2ccc3c(c2)OCO3)c(-c2ccc3c(c2)OCO3)[nH]1 [SMI-10B5, (E)-3-(4,5-Bis(benzo[d][1,3]dioxol-5-yl)-1H-pyrrol-2-yl)acrylic Acid] | 9.2 ± 1.2 µM | 19.89% | – | – | –
19 | COc1ccc(-c2cc(CCC(=O)O)oc2-c2ccc3c(c2)OCO3)cc1 [SMI-10B17, 3-(5-(Benzo[d][1,3]dioxol-5-yl)-4-(4-methoxyphenyl)furan-2-yl)propanoic acid] | 34.5 ± 6.9 µM | 86.51% | – | – | –
20 | O=C(O)CCc1cc(-c2cncnc2)c(-c2ccc3c(c2)OCO3)o1 [SMI-10B16, 3-(5-(Benzo[d][1,3]dioxol-5-yl)-4-(pyrimidin-5-yl)furan-2-yl)propanoic Acid] | 16.5 ± 5.2 µM | 41.62% | – | – | –
21 | O=C(O)/C=C/c1cc(-c2ccc3c(c2)OCO3)c(-c2ccccc2)o1 [SMI-10B9, (E)-3-(4-(Benzo[d][1,3]dioxol-5-yl)-5-phenylfuran-2-yl)acrylic Acid] | 18.2 ± 2 µM | 30.98% | – | – | –
